Results reported in the METLIN SMRT retention time set (Domingo-Almenara et al. 2019).

experiment: gradient 5% acetonitrile 3 min, to 50% in 2 min, to 85% in 15 min, held 3 min, 100 µL/min; settings: column: Zorbax Extend-C18 2.1 x 50 mm; eluents: water / acetonitrile, 0.1% formic acid
Method in brief: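 Standards, all pure, were combined into mixtures of ~100 molecules and run at 100 μL/min on a Zorbax Extend-C18 column (2.1 × 50 mm, 1.8 μm) with water and acetonitrile, each containing 0.1% formic acid. A coupled quadrupole time-of-flight mass spectrometer operated in positive and negative ionization mode. Retention time values come from computationally picked adduct peaks, each inspected manually.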

RP-LC retention time [s] | SMILES
587 | CCc1cc(=O)n(CC(=O)Nc2ccc(N(C)C)cc2)c(N2CCOCC2)n1
601 | O=C(NC1CC1)c1nc(C(=O)N2CCN(C3CCCCC3)CC2)cs1
640 | CC1CCN(C(=O)c2cn(-c3cc(-c4nc(C(C)C)no4)ccn3)cn2)CC1
615 | C=CCNC(=O)CCc1c(-c2ccc(Cl)cc2)nc2ccccn12
925 | O=c1c2cnc3nc(-c4ccccc4)nn3c2ccn1CCc1c[nH]c2ccccc12
582 | O=C(CC1CCN(C(=O)c2ccccc2)CC1)N1CCN(c2ccccn2)CC1
714 | Nc1nc(N)nc(-c2cc(Cl)ccc2Cl)n1
770 | Cc1ccc2[nH]cc(CCN3CC(C(=O)NCc4ccc5c(c4)OCO5)CC3=O)c2c1 (stereo not given)
585 | CCOC(=O)C1=C(CN2CCN(Cc3ccc4c(c3)OCO4)CC2)NC(=O)NC1c1ccc(C)cc1 (stereo not given)
903 | COC1CCC12CCN(C(=O)C1CCCCC1)CC2 (stereo not given)
1060 | CCCN1C(=O)COc2ccc(-c3noc(C4CC(=O)N(c5ccc(C)c(C)c5)C4)n3)cc21 (stereo not given)
628 | Cc1ccn2cc(C(=O)NCc3ccccc3F)nc2c1
636 | Cc1ccc(NC(=O)N2CCN(CCn3cnc4cccnc43)CC2)cc1Cl
1000 | Cc1nn(-c2ccccc2)c(C)c1S(=O)(=O)N1CCC(C(=O)Nc2cccc(Cl)c2C)CC1
974 | O=C(c1cn2nc(Cl)ccc2n1)N(Cc1ccccc1)Cc1ccco1
581 | COCCC(=O)N1CC(c2nc(CCOC)no2)C1
644 | O=C(NC1CCCC1)N1CCN(Cc2nc3cc(C(=O)N4CCCCC4)ccc3o2)CC1
831 | Cc1ccc(NC(=O)N2C[C@@H](F)C[C@H]2C(=O)N2CCc3ccccc3C2)c(Cl)c1
1050 | Cc1cc(=O)n(CC(=O)Nc2ccc(F)cc2F)c(-c2ccc(F)cc2)n1
529 | CCC(=O)NCc1nc2c(n1CC)CN(C(=O)c1ccc(Cl)cc1)CC2
974 | CCOc1ccc(NC(=O)Cc2c(C)nn(-c3nc(C)cs3)c2C)cc1
591 | CCOC(=O)c1ccc(NC(=O)COc2cc(C)nc(N3CCCC3)n2)cc1
756 | Cc1nnc(-c2ccc3ccn(CC(=O)Nc4ccc5c(c4)OCCO5)c3c2)o1

RP-LC retention time [s] | SMILES
858 | COc1ccccc1-c1noc(C2CCCN2C(=O)Nc2cccc(C)c2C)n1 (stereo not given)
709 | O=c1[nH]nc(SC(F)(F)C(F)(F)C(F)(F)F)c(=O)[nH]1
696 | COC(=O)CNC(=O)NCCn1c(-c2ccc(F)cc2)nc2ccccc21
780 | CN[C@H](CNC(=O)N1CCC[C@@H]([C@@H](OCCNC(=O)OC)c2cccc(Cl)c2)C1)C[C@H]1CCCOC1
747 | Cc1ccc(S(=O)(=O)N2CCCC(Cn3c(C)nc4cccnc43)C2)c(C)c1 (stereo not given)
687 | CCc1cc(=O)n(CC(=O)Nc2ccccc2)c(N2CCOCC2)n1
771 | CCOC(=O)N1CCC(NC(=O)Cc2csc(Nc3cccc(Cl)c3)n2)CC1
726 | CN(CC1CCOCC1)C(=O)Nc1ccc(Cl)cc1F
552 | Cn1nc2n(c1=O)CCN(C(=O)c1ccn[nH]1)CC2
651 | O=C(Nc1c(-c2ccc(F)cc2)nc2ccccn12)c1ccc2c(c1)OCO2
607 | CCNC(=O)CC1=C2CCCCC2N(C)C1=O (stereo not given)
818 | Cc1ccc(N2CCN(C(=O)c3cc(C)n4nccc4n3)CC2)cc1
825 | CCCn1nc(CNC(=O)c2ccsc2)c2ccccc21
561 | O=C1CCN(Cc2ccc(F)cc2F)CCOCCN1
823 | Cc1ccc(CSc2nccc3c2ccn3CC(=O)NCc2cccnc2)cc1
656 | Cc1cc(N2CCOCC2)n2nc(CN3CCN(c4cccc(Cl)c4)CC3)nc2n1
639 | O=C(NCCCN1CCCC1)c1ccc2ccnc(N3CCN(c4ccc(Cl)cc4)CC3)c2c1
938 | COC(=O)COC(=O)c1cn(-c2cccc(F)c2)c(=O)c2ccccc12
888 | CC(=O)NCc1ccc(-c2noc(-c3cc(Cl)ccc3F)n2)s1
615 | CCC1CN2C=NC(N3CCN(C(=O)NCc4cccc(F)c4)CC3)=CC2=N1 (stereo not given)
850 | O=C(Cn1cccc(S(=O)(=O)N2CCCCCC2)c1=O)N1CCCc2ccccc21
1120 | COc1ccc(-c2noc(-c3nnn4c3COC(c3ccc(F)cc3)C4)n2)cc1 (stereo not given)
609 | CC(=O)Nc1ccc(-c2cc(C(=O)N3CCN(c4ccccn4)CC3)c3ccccc3n2)cc1

RP-LC retention time [s] | SMILES
662 | O=C(NC1CCS(=O)(=O)C1)C1CCN(c2cnn(Cc3ccccc3)c(=O)c2)C1 (stereo not given)
1120 | COc1cc(OC)cc(-c2nc(-c3ccc(NS(=O)(=O)c4cccs4)cc3)no2)c1
717 | Cc1ccc(-c2nc3ccccn3c2Nc2ccc(F)cc2)cc1
633 | CCC(=O)N1CCN(c2nc3c(s2)CC(C(=O)Nc2cc(F)ccc2F)CC3)CC1 (stereo not given)
564 | C=CCN1CCN(C(=O)c2ccc3c(c2)Sc2ncccc2C(=O)N3CC)CC1
872 | CCC(C(=O)N(C)CCc1noc(-c2ccc(C(=O)N3CCCC3)cc2)n1)c1ccccc1 (stereo not given)
898 | CC(C)CNC(=O)NC(c1ccccc1)c1nnc(-c2ccccc2Cl)o1 (stereo not given)
1230 | CCOc1ccc(S(=O)(=O)N2CCCC2c2nc(-c3cccc(Cl)c3)no2)cc1 (stereo not given)
773 | COc1ccc(CCNC(=O)N2CC(c3nc(-c4cccs4)no3)C2)cc1
667 | CCc1cccc(NC(=O)N2CCC(n3cnnc3C3CC3)C2)c1 (stereo not given)
811 | Cc1cccc(N2C(=O)CN(CCC(C)C)[C@H]3CS(=O)(=O)C[C@H]32)c1
1070 | COC(=O)c1ccccc1NC(=O)Cn1cccc(-c2nc(-c3ccc(Cl)cc3)no2)c1=O
828 | COC(=O)CCNC(=O)c1cc2c(=O)n(CC(C)C)c3ccccc3n2n1
600 | CCN1C(=O)C2CC3(CCN(C(=O)CN4CCCC4=O)CC3)CN2C1=O (stereo not given)
652 | COc1ccccc1-c1nc(C2CCN(C(=O)c3cccc4[nH]ccc34)CC2)no1
686 | CSc1cccc(NC(=O)Cn2c(=O)cc(-c3nc(C4CC4)no3)c3ccccc32)c1
703 | Cc1nc2cccnc2n1CC1CCCN(S(=O)(=O)c2cc(F)ccc2F)C1 (stereo not given)
801 | Cc1ccc2[nH]cc(CCN3CC(C(=O)Nc4ccccc4)CC3=O)c2c1 (stereo not given)
871 | CCCNC(=O)Cn1c(C)cc(=O)n2nc(-c3ccc(Cl)cc3)nc12
853 | Cc1nn2c(CNS(=O)(=O)c3ccccc3Cl)c(-c3ccccc3)nc2s1
603 | COCCCN(CC(=O)N1CCNCC1)C(=O)c1ccc(Br)cc1
790 | Cc1cccc(NC(=O)C2CCN(C(=O)C3Sc4ccccc4NC3=O)CC2)c1 (stereo not given)
942 | Cc1noc(C)c1-c1ccc(S(=O)(=O)NCc2ccc(F)cc2)cc1

RP-LC retention time [s] | SMILES
718 | CCN1C(=O)c2cccc3c(NC(=O)Cc4cccs4)ccc1c23
859 | O=C(c1ccccc1Sc1nccnc1Oc1ccccc1)N1CCOCC1
671 | O=C(Cn1c(-c2cccs2)cc2cc(F)ccc21)NCCCN1CCOCC1
721 | CCc1ccccc1NS(=O)(=O)c1cc(-c2[nH]ncc2C(=O)N2CCOCC2)oc1C
727 | Cc1ccc(S(=O)(=O)NCCSc2ncccn2)cc1
787 | COc1ccccc1C(=O)N1CCC2(CC1)NC(=O)c1cc(Cl)ccc1N2C
799 | COC(=O)c1ccc(NC(=O)C2CC(=O)N(CCc3c[nH]c4ccc(F)cc34)C2)cc1 (stereo not given)
726 | COCCCNC(=O)c1cc(-c2ccc(F)cc2)c[nH]1
1060 | CC1(C(=O)NCc2ccccc2)CN(S(=O)(=O)c2ccccc2)CC(=O)N1C1CCCCCC1 (stereo not given)
781 | CCn1nccc1C(=O)N1CCN(c2cc(-c3ccc(Cl)cc3)[nH]n2)CC1
780 | COc1ccc(C)cc1Nc1ncnc(N)c1[N+](=O)[O-]
864 | Cc1cc(C)cc(N2CCC(NC(=O)Cc3ccc(F)cc3)C2=O)c1 (stereo not given)
604 | CC(=O)c1ccc(NC(=O)CC(C)n2cncn2)cc1 (stereo not given)
829 | Cc1cc(C)n2c(Nc3cccc(C(F)(F)F)c3)c(-c3ccc(F)cc3)nc2n1
834 | CC(CNC(=O)C1CCCN1S(=O)(=O)c1cc2c(cc1Cl)NC(=O)CO2)c1ccccc1 (stereo not given)
730 | CCCNC(=O)CN1C(=O)CCn2nc(-c3cn(C)c4ccccc34)cc21
1090 | Cc1ccc(CNC(=O)C2CCCN(c3nccnc3Sc3ccc(C)cc3)C2)cc1 (stereo not given)
866 | Cc1c(C(=O)NC2CC2)cnn1-c1ccc(SCc2ccccc2)nn1
618 | CCOc1ccc(-c2[nH]ncc2CN2CCn3c(nn(C)c3=O)C2)cc1
840 | O=C(CN1C(=O)c2ccccc2C1=O)OCc1nc2ccccc2s1

SMILES | RP-LC retention time [s]
COc1ccc(NC(=O)N2CCC3(C2)C(=O)Nc2ccc(OC)cc23)cc1 (stereo not given) | 697
